Read-outs that look alike come from different tables or passages of the source.
Assays:
[1] = molecular target: human GABAA α1β3γ2 receptor (Homo sapiens (Human), UniProt P14867+P18507); assay: Radioligand binding assay, competition for [3H]Flumazenil, γ2-containing GABAA subtype α1β3γ2
Method: The affinity of compounds at GABAA γ2 subunit-containing receptors was measured by competition for [^3H]Flumazenil (81.1 Ci/mmol; Roche) binding to HEK293F cells expressing human (transiently transfected) receptors of composition α1β3γ2.
Harvested pellets from HEK293F cells expressing the different GABAA γ2 receptor subtypes were resuspended in Mannitol Buffer pH 7.2-7.4 and processed as described above for the cells expressing the GABAA γ1 subunit-containing receptors.
Assays were incubated to equilibrium for 1 hour at 4° C. and harvested onto GF/C uni-filters (Packard) by filtration using a Packard harvester and washing with ice-cold wash buffer (50 mM Tris; pH 7.5). After anhydrousing, filter-retained radioactivity was detected by liquid scintillation counting. Ki values were calculated using Excel-Fit (Microsoft) and are the means of two determinations.

[2] = molecular target: human GABAA α5β2γ1 receptor (Homo sapiens (Human), UniProt P31644+Q8N1C3); assay: Radioligand binding assay, competition for [3H]RO7239181, γ1-containing GABAA subtype α5β2γ1
Method: The affinity of compounds at GABAA γ1 subunit-containing receptors was measured by competition for [^3H]RO7239181 (67.3 Ci/mmol; Roche) binding to membranes from HEK293F cells (ThermoFisher R^79007) expressing human (transiently transfected) receptors of composition α5β2γ1, α2β2γ1, α1β2γ1. For better protein expression of the α2 subunit-containing receptors, the 28 amino acid long signal peptide (Met1 to Ala28)of the human GABAA α2 subunit was substituted by the 31 amino acid long signal peptide (Met1 to Ser31) of human GABAA α5 subunit.
(§1) Harvested pellets from HEK293F cells expressing the different GABAA receptor subtypes were resuspended in Mannitol Buffer pH 7.2-7.4 (Mannitol 0.29M, Triethylamine 10 mM, Acetic acid 10 mM, EDTA 1 mM plus protease inhibitors (20 tablets Complete, Roche Diagnostics Cat. No. 05 056 489 001 per liter)), washed two times and then resuspended at 1:10 to 1:15 dilution in the same buffer. Cell disruption was performed by stirring the suspension in a Parr vessel #4637 at 435 psi for 15 minutes, and then the suspensions were centrifuged at 1000×g for 15 minutes at 4° C. (Beckman Avanti J-HC: rotor JS-4.2). The supernatant (S1) was transferred in a 21 Schott flask and the pellet (P1) was resuspended with Mannitol Buffer up to 175 ml. The resuspended pellet was transferred into a 250 ml Corning centrifugal beaker and centrifuged at 1500×g for 10 minutes at 4° C. (Beckman Avanti J-HC: rotor JS-4.2). The supernatant (S1) was then transferred in the 21 Schott flask and the pellet was discarded. The supernatants (S1) were centrifuged in 500 ml Beckman polypropylene centrifugal beaker at 15 000×g for 30 minutes at 4° C. (Beckman Avanti J-20 XP: rotor JLA-10.500). The pellet (P2) was resuspended with Mannitol Buffer 1:1 and frozen at −80° C. The supernatant (S2) was centrifuged in 100 ml Beckman polypropylene centrifugal tubes at 48000×g for 50 minutes at 4° C. (Beckman Avanti J-20 XP: rotor JA-18). The supernatant (S3) was discarded and the pellet (P3) was resuspended with 1:1 Mannitol Buffer. The P2 and P3 protein concentration was determined with the BIORAD Standard assay method with bovine serum albumin as standard and measured on the NANO-Drop 1000. The membrane suspension was aliquots (500 μl per tube) and stored at −80° C. until required.
(§2) Membrane homogenates were resuspended and polytronised (Polytron PT1200E Kinematica AG) in Potassium Phosphate 10 mM, KCl 100 mM binding buffer at pH 7.4 to a final assay concentration determined with a previous experiment.
Radioligand binding assays were carried out in a volume of 200 μL (96-well plates) which contained 100 μL of cell membranes, [3H]RO7239181 at a concentration of 1.5 nM (α5β2γ1) or 20-30 nM (α1β2γ1, α2β2γ1) and the test compound in the range of [0.3-1000]×10^−9 M. Nonspecific binding was defined by 10×10^−6 (α5β2γ1) and 30×10^−6 M RO7239181 and typically represented less than 5% (α5β2γ1) and less than 20% (α1β2γ1, α2β2γ1) of the total binding. Assays were incubated to equilibrium for 1 hour at 4° C. and then, membranes were filtered onto unifilter (96-well white microplate with bonded GF/C filters preincubated 20-50 minutes in 0.3% Polyethylenimine) with a Filtermate 196 harvester (Packard BioScience) and washed 4 times with cold Potassium Phosphate 10 mM pH 7.4, KCl 100 mM binding buffer. After anhydrousing, filter-retained radioactivity was detected by liquid scintillation counting. Ki values were calculated using Excel-Fit (Microsoft) and are the means of two determinations.

h-GABA-A α2β2γ1 = h-GABA-A α2β2γ1 (Homo sapiens (Human), UniProt P47869+Q8N1C3); assay: Two-electrode voltage clamp electrophysiology in Xenopus oocytes expressing GABAA receptors, modulation of GABA EC20 current; format: cell-based; details: for Efficacy (GABA) %: % modulation of GABA EC20 = 100*(Fold increase−1), compound at 30-fold Ki α2β2γ1; for Fold increase h-GABA-A α2β2γ1 oocyte @ 30-fold Ki: Xenopus oocytes, GABA EC20, test compound at approx. 30-fold its Ki α2β2γ1
Method: Xenopus laevis oocytes at maturation stages V-VI were used for the expression of cloned mRNA encoding GABAA receptor subunits. Oocytes ready for RNA micro-injection were bought from Ecocyte, Castrop-Rauxel, Germany and stored in modified Barth's medium (composition in mM: NaCl 88, KCl 1, NaHCO3 2.4, HEPES 10, MgSO4 0.82, CaNO3 0.33, CaCl2 0.33, pH=7.5) at 20° C. until the experiment.
Oocytes were plated in 96-well plates for microinjection using the Roboinject automated instrument (MultiChannelSystems, Reutlingen, Germany). Approximately 50 nL of an aqueous solution containing the RNA transcripts for the subunits of the desired GABAA receptor subtype was injected into each oocyte. […] Oocytes were kept in modified Barth's medium (composition in mM: NaCl 88, KCl 1, NaHCO3 […], HEPES 10, MgSO4 0.82, CaNO3 0.33, CaCl2 0.33, pH=7.5) at 20° C. until the experiment.
Electrophysiological experiments were performed using the Roboocyte instrument (MultiChannelSystems, Reutlingen, Germany) on days 3 to 5 after the micro-injection of mRNA. During the experiment the oocytes were constantly superfused by a solution containing (in mM) NaCl 90, KCl 1, HEPES 5, MgCl2 1, CaCl2 1 (pH 7.4). Oocytes were impaled by two glass microelectrodes (resistance: 0.5-0.8 MΩ) which were filled with a solution containing KCl 1M+K-acetate 1.5 M and voltage-clamped to −80 mV. The recordings were performed at room temperature using the Roboocyte two-electrode voltage clamp system (Multichannelsystem). After an initial equilibration period of 1.5 min GABA was added for 1.5 min at a concentration evoking approximately 20% of a maximal current response (EC20). After another rest interval of 2.5 min GABA was again added evoking a response of similar amplitude and shape. […] Current traces were recorded at a digitization rate of 10 Hz during and shortly before and after the GABA application.
Each compound and concentration was tested on at least 3 oocytes. Different oocytes were used for different compound concentrations.
For the analysis, the digitized current traces of the first and second GABA response were superimposed and, if necessary, rescaled to equal maximal amplitudes. The ratio between the two responses during the time interval of test compound application was calculated point by point. The extremum of the resulting “ratio trace” was taken as the efficacy (“Fold increase”) of the compound expressed as “% modulation of GABA EC20” (100*(Fold increase−1)).

[3] = molecular target: human GABAA α2β2γ1 receptor (Homo sapiens (Human), UniProt P47869+Q8N1C3); assay: Radioligand binding assay, competition for [3H]RO7239181, γ1-containing GABAA subtype α2β2γ1; details: for γ2/γ1 Selectivity Ratio: Ki α1β3γ2 (nM)/Ki α2β2γ1 (nM); for LogSel: Log[Ki α1β3γ2 (nM)/Ki α2β2γ1 (nM)]
Method: (§3) The affinity of compounds at GABAA γ1 subunit-containing receptors was measured by competition for [^3H]RO7239181 (67.3 Ci/mmol; Roche) binding to membranes from HEK293F cells (ThermoFisher R^79007) expressing human (transiently transfected) receptors of composition α5β2γ1, α2β2γ1, α1β2γ1.
as §1, §2
(§4) Assays were incubated to equilibrium for 1 hour at 4° C. and then, membranes were filtered onto unifilter (96-well white microplate with bonded GF/C filters preincubated 20-50 minutes in 0.3% Polyethylenimine) with a Filtermate 196 harvester (Packard BioScience) and washed 4 times with cold Potassium Phosphate 10 mM pH 7.4, KCl 100 mM binding buffer. After anhydrousing, filter-retained radioactivity was detected by liquid scintillation counting. Ki values were calculated using Excel-Fit (Microsoft) and are the means of two determinations.

[4] = molecular target: human GABAA α1β2γ1 receptor (Homo sapiens (Human), UniProt P14867+Q8N1C3); assay: Radioligand binding assay, competition for [3H]RO7239181, γ1-containing GABAA subtype α1β2γ1; details: membranes of HEK293F cells, [3H]RO7239181 20-30 nM, mean of two determinations
Method: as §3, §1, §2, §4

[5] = read-out: Ki h-GABAA α2β2γ1, Table 2, membranes of HEK293F cells, [3H]RO7239181

Question: What does the source list for `Cc1cn2c(nc1=O)[C@H](C)N=C(c1c(F)cccc1F)c1c-2ccc(Cl)c1Cl` [Example 7, (5S)-8,9-dichloro-7-(2,6-difluorophenyl)-2,5-dimethyl-5H-pyrimido[1,2-a][1,4]benzodiazepin-3-one]?
Answer: Ki [1]: 695 nM; Ki [2]: 1.4 nM; Efficacy (GABA) % (h-GABA-A α2β2γ1): 53%; Fold increase h-GABA-A α2β2γ1 oocyte @ 30-fold Ki (h-GABA-A α2β2γ1): 1.53; Ki [3]: 11.3 nM; γ2/γ1 Selectivity Ratio [3]: 61.2; LogSel [3]: 1.79; Ki [3, 5]: 11.3 nM

Question: Which Ki [1] does the source give for `Cc1ccc2c(c1Cl)C(c1c(F)cccc1F)=N[C@@H](C)c1nc(=O)c(C)cn1-2` [Example 8, (5S)-8-chloro-7-(2,6-difluorophenyl)-2,5,9-trimethyl-5H-pyrimido[1,2-a][1,4]benzodiazepin-3-one] here?
Answer: 1240 nM

Question: And the Ki [2]?
Answer: 2 nM

Question: What about the “Efficacy (GABA) %” value (h-GABA-A α2β2γ1) of the same compound?
Answer: 115%

Question: What about the “Fold increase h-GABA-A α2β2γ1 oocyte @ 30-fold Ki” value (h-GABA-A α2β2γ1) of the same compound?
Answer: 2.15

Question: What about the Ki [3] of the same compound?
Answer: 37.7 nM

Question: And the “γ2/γ1 Selectivity Ratio” value [3]?
Answer: 32.7

Question: And the LogSel [3]?
Answer: 1.51

Question: What about the Ki [3, 5] of the same compound?
Answer: 37.7 nM

Question: How did the Ki [1] turn out when `O=c1nc2n(cc1Br)-c1ccc(Br)c(Cl)c1C(c1c(F)cccc1F)=NC2` [Example 15, 2,9-dibromo-8-chloro-7-(2,6-difluorophenyl)-5H-pyrimido[1,2-a][1,4]benzodiazepin-3-one] was run?
Answer: 1970 nM

Question: And the Ki [2]?
Answer: 0.8 nM

Question: What about the “Efficacy (GABA) %” value (h-GABA-A α2β2γ1) of the same compound?
Answer: 69%

Question: And the “Fold increase h-GABA-A α2β2γ1 oocyte @ 30-fold Ki” value (h-GABA-A α2β2γ1)?
Answer: 1.69

Question: And the Ki [3]?
Answer: 8 nM

Question: What about the “γ2/γ1 Selectivity Ratio” value [3] of the same compound?
Answer: 244.8

Question: And the LogSel [3]?
Answer: 2.39

Question: And the Ki [3, 5]?
Answer: 8 nM

Question: What does the source list for `O=c1nc2n(cc1Br)-c1ccc(Cl)c(Cl)c1C(c1c(F)cccc1F)=NC2` [Example 5, 2-bromo-8,9-dichloro-7-(2,6-difluorophenyl)-5H-pyrimido[1,2-a][1,4]benzodiazepin-3-one]?
Answer: Ki [1]: 2020 nM; Ki [2]: 1.4 nM; Efficacy (GABA) % (h-GABA-A α2β2γ1): 78%; Fold increase h-GABA-A α2β2γ1 oocyte @ 30-fold Ki (h-GABA-A α2β2γ1): 1.78; Ki [3]: 10.6 nM; γ2/γ1 Selectivity Ratio [3]: 190.6; LogSel [3]: 2.28; Ki [3, 5]: 10.6 nM

Question: How did the Ki [4] turn out when `C[C@@H]1N=C(c2c(F)cccc2F)c2c(ccc(C(F)(F)F)c2Cl)-n2cc(CO)c(=O)nc21` [Example 29, (5S)-8-chloro-7-(2,6-difluorophenyl)-2-(hydroxymethyl)-5-methyl-9-(trifluoromethyl)-5H-pyrimido[1,2-a][1,4]benzodiazepin-3-one] was run?
Answer: 113 nM

Question: What about the Ki ([1]; HEK293F cell membranes, [3H]Flumazenil 1 nM, mean of two determinations, read-out: Ki h-GABAA α1β3γ2) of the same compound?
Answer: 13100 nM

Question: And the Ki ([2]; membranes of HEK293F cells, [3H]RO7239181 1.5 nM, mean of two determinations, read-out: Ki h-GABAA α5β2γ1)?
Answer: 11.2 nM

Question: What about the “γ2/γ1 Selectivity Ratio” value [3] of the same compound?
Answer: 292.6

Question: And the LogSel [3]?
Answer: 2.47

Question: What about the Ki ([3]; Table 2, membranes of HEK293F cells, [3H]RO7239181, read-out: Ki h-GABAA α2β2γ1) of the same compound?
Answer: 44.6 nM

Question: And the Ki ([3]; membranes of HEK293F cells, [3H]RO7239181 20-30 nM, mean of two determinations, read-out: Ki h-GABAA α2β2γ1)?
Answer: 44.6 nM

Reference: patent publication US20240287082A1, “NEW BENZODIAZEPINE DERIVATIVES AS GABA A GAMMA1 PAM” (Hoffmann-La Roche Inc., priority 2021, published 2024)
